The values below come from US10793598B2, “GrB-EHITSN inhibitory peptides” (Rush University Medical Center, priority 2014, dated 2020).

Data set [1] has as its target T1, myc-GrB-EHITSN (Homo sapiens, UniProt Q15811).
T1 construct: with a conserved cleavage site (IDQD^271GK) throughout the evolution; expressed in transfected cells; host or cells: endothelial cells (ECs), stably transfected, neomycin-selected; lysates resolved by SDS-PAGE and blotted
T1 sequence (Q15811 1-271): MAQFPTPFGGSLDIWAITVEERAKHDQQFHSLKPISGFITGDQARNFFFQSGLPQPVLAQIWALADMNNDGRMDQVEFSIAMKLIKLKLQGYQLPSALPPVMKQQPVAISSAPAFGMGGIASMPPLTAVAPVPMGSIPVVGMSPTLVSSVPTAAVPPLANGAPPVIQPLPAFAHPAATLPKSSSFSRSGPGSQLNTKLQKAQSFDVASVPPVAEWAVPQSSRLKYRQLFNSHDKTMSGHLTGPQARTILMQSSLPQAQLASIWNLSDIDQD
The data set can be described thus: Overlay of lysates on nitrocellulose membranes with FITC peptide, detected by FITC Ab. As to conditions: overlay on myc-GrB-EHITSN-EC lysates; n=3. The class given is binding. As to the method: (§1) FIGS. 1A-1C illustrate the effect of the GrB-EHITSN inhibitory peptide on ECs. A. MTT assay applied on ECCtrl, myc-GrB-EHITSN-transfected ECs and myc-GrB-EHITSN-transfected ECs exposed to 12.5 μM PenNFP-FITC peptide for 1 h, 37° C.; p<0.05; WB of cell lysates (inset a1) of ECCtrl (a), myc-GrB-EHITSN-ECs (b) and myc-GrB-EHITSN-ECs+12.5 μM PenNPF for 1 h, 37° C. (c), using phospho (p)-p38 and p38 Abs. B. Quantification of EC proliferation: ECCtrl (a), myc-GrB-EHITSN-ECs (b), myc-GrB-EHITSN-ECs+12.5 μM PenNPF (c), myc-GrB-EHITSN-ECs+12.5 μM Pen-AAA (d), myc-GrB-EHITSN-ECs+12.5 μM Pen (e), myc-GrB-EHITSN-ECs+12.5 μM NPF (f), and myc-GrB-EHITSN-ECs+12.5 μM scrambled penNPF, (g). Data in A and B are mean±SEM of 3 independent experiments performed in triplicates. *p<0.05 vs. ECCtrl. C. Fluorescence microscopy of ECs exposed to 12.5 μM PenNPF-FITC, fixed and mounted on glass slides with Prolong Antifade with DAPI. Bar: 50 μm. Inset c1. ECCtrl (a) and myc-GrB-EHITSN-ECs (b) lysates resolved on SDS PAGE and transferred to nitrocellulose membranes were overlaid with the PenNFP-FITC.
(§2) ECs stably transfected with the myc-GrB-EHITSN [selected based on neomycin-resistance], were treated with the PenNPF-FITC peptide to address whether inhibition of GrB-EHITSN ameliorates EC proliferation. […] A growth curve was generated to relate the OD^570 values to the cell number per well. […]

For data set [2], the system named is myc-GrB-EHITSN-transfected ECs. The data set can be described thus: MTT assay of EC proliferation / cell growth. In kind it is cell-based. As to conditions: for cell growth / EC proliferative potential (MTT): myc-GrB-EHITSN-transfected ECs, 12.5 μM peptide, 1 h, 37° C., vs transfected ECs not exposed. The procedure: (§3) (c), using phospho (p)-p38 and p38 Abs. […] C. […] Bar: 50 μm. Inset c1. ECCtrl (a) and myc-GrB-EHITSN-ECs (b) lysates resolved on SDS PAGE and transferred to nitrocellulose membranes were overlaid with the PenNFP-FITC.
(§4) ECs stably transfected with the myc-GrB-EHITSN [selected based on neomycin-resistance], were treated with the PenNPF-FITC peptide to address whether inhibition of GrB-EHITSN ameliorates EC proliferation. […] A growth curve was generated to relate the OD^570 values to the cell number per well. […] Inset c1. ECCtrl (a) and myc-GrB-EHITSN-ECs (b) lysates resolved on SDS PAGE and transferred to nitrocellulose membranes were overlaid with the PenNFP-FITC.
(In general: Tetrazolium assays rely on reduction of a dye to a coloured formazan, in cell work by metabolically active cells.)

Data set [3] relates to phospho-p38. Kind of data set: WB of cell lysates using phospho (p)-p38 and p38 Abs. In kind it is cell-based. As to conditions: GrB-EHITSN-transfected ECs, exposure for 24 h. The procedure: as §3, §4
The subject of data set [4] is ECs. Kind of data set: Fluorescence microscopy of peptide internalization. In kind it is cell-based. The note with it: 12.5 μM PenNPF-FITC. The procedure: as §1, §2
For data set [5], the system named is myc-GrB-EHITSN-mice. Kind of data set: RVSP measured by right heart catheterization. In kind it is in vivo, mouse. As to the method: FIGS. 3A-3D illustrate representative H&E staining of lung sections of myc-GrB-EHITSN-KDITSN mice (A, a1, B) and RVSP measurements (C) in wt-(bar a), empty-Lipo (bar b) and myc-GrB-EHITSN-mice (bar c), 10 days of GrB-EHITSN treatment. […] Data are mean±SEM. For morphological assessment of peptide internalization (panel D), mice were sacrificed 1 h after injection. Bars: 50 μm (A, B); 20 μm (a1, D). n=3.

In data set [6] the test system is GrB-EHITSN-mice. Kind of data set: Fulton's index (RV hypertrophy). The class given is in vivo, mouse. The note with it: means±SEM, p<0.05 vs wt-mice. The source says: GrB-EHITSN increases pulmonary pressure in mouse lungs. […] The Fulton's index (RV/left ventricle plus septum), indicative of RV hypertrophy, assessed as in (Qin, 2012) was higher in GrB-EHITSN-mice compared to wt-mice (0.31±0.03 vs. 0.22±0.01; means±SEM; p<0.05).

The test system of data set [7] is BrdU+ ECs. The data set can be described thus: BrdU cell proliferation assay in mouse lungs. As to conditions: myc-GrB-EHITSN plasmid via cationic liposomes into mouse lungs, day 6 of treatment. The class given is in vivo. The source says: FIGS. 2A-2B illustrate the proliferative effect of the GrB-EHITSN fragment on EC in vivo. Wt-mice (B) and myc-GrB-EHITSN-treated mice, day 5 of treatment (A) were subjected to BrdU proliferation assay. Data are mean±SEM. All data are representative of 3 mice in each group. Bars: 20 μm.
(§5) GrB-EHITSN has EC proliferative potential in vivo. To address the proliferative potential of GrB-EHITSN in vivo, the myc-GrB-EHITSN DNA plasmid was delivered via cationic liposomes into mouse lungs. (Knezevic, 2011). […] For continuous and efficient long-term expression of myc-GrB-EHITSN, mice were injected repeatedly every 48 h, for 9 days (Bardita, 2013). Actin was used as loading control. In parallel studies, myc-GrB-EHITSN-transduced mice (FIG. 2B) and wt-controls (FIG. 2A) were subjected to BrdU cell proliferation and morphometric analyses, at day 6 of GrB-EHITSN treatment (Bardita, 2013). BrdU was injected intra-peritoneally every 24 h, for 2 consecutive days (day 4 and 5 of myc-GrB-EHITSN treatment). Incorporated BrdU was detected via BrdU-FITC Ab; CD31 Ab/AlexaFluor 594 was used for positive identification of ECs. For morphological assessment of peptide internalization mice were sacrificed 1 h after injection. […] Data in FIG. 2A-B indicate that the GrB-EHITSN has EC proliferative in vivo.

Data set [8] can be described thus: WB with myc Ab on lung lysates (expression of the encoded protein). In kind it is in vivo, mouse. The note with it: after liposomal plasmid delivery; efficiently expressed at 48 h post-delivery. As to the method: as §5

No end group written: not given here.

On to “PenNPF-FITC: PenNPF inhibitory peptide carrying a FITC-tag (RQIKIWFQNRRMKWKKPTGSSSTNPFL; also: FITC tag, site not given here)”, for which the “interaction with myc-GrB-EHITSN” value in data set [1] is listed as “direct interaction”. Also, the “decrease in the number of myc-GrB-EHITSN-transfected cells” value in data set [2] (calculated on 3 successive points of growth curve, vs transfected ECs not exposed to peptide) is on record as “greater than 35%”. Besides, the “cell growth / EC proliferative potential (MTT)” value in data set [2] is given as “inhibits cell growth”. In data set [2] (wells with myc-GrB-EHITSN-transfected cells exposed to peptide), the OD570 values result was “close to the OD^570 values of control ECs”. Also, the “phospho-p38 / p38 activation” value in data set [3] is listed as “phospho-p38 inhibition”. The “internalization by ECs (fluorescent imaging)” value in data set [4] was “efficient internalization”.

Take “RQIKIWFQNRRMKWKKPTGSSSTNPFL (PenNPF fusion peptide)”: the “decrease in RVSP” value in data set [5] (myc-GrB-EHITSN-mice, 50 μg PenNPF/mouse) stood at 20%. Further, the “cell growth / EC proliferative potential (MTT)” value in data set [2] is listed as “decreases the ECs proliferative potential of GrB-EHITSN”. In addition, the “phospho-p38 / p38 activation” value in data set [3] is “decreases the ECs proliferative potential of GrB-EHITSN and p38 activation”.

B1: myc-GrB-EHITSN: myc-tagged granzyme B cleavage fragment of intersectin-1s (two EH domains), expressed from DNA plasmid delivered via cationic liposomes (protein)
chain: MAQFPTPFGGSLDIWAITVEERAKHDQQFHSLKPISGFITGDQARNFFFQSGLPQPVLAQIWALADMNNDGRMDQVEFSIAMKLIKLKLQGYQLPSALPPVMKQQPVAISSAPAFGMGGIASMPPLTAVAPVPMGSIPVVGMSPTLVSSVPTAAVPPLANGAPPVIQPLPAFAHPAATLPKSSSFSRSGPGSQLNTKLQKAQSFDVASVPPVAEWAVPQSSRLKYRQLFNSHDKTMSGHLTGPQARTILMQSSLPQAQLASIWNLSDIDQD
modifications: left off: small tags and cut ends
notes: myc-tagged granzyme B cleavage fragment of intersectin-1s (two EH domains), expressed from DNA plasmid delivered via cationic liposomes
B1: in data set [6], the “Fulton's index (RV/left ventricle plus septum)” value amounted to 0.31±0.03. For the same molecule, the “increase in RVSP compared to wt- and empty liposomes-treated mice” value in data set [5] (day 10-post initial GrB-EHITSN delivery) came out at 1.36 fold. For the same molecule, the “increase in BrdU+ ECs relative to controls” value in data set [7] was “more than 1.6 fold”. The “lifetime of encoded protein in mouse lung” value in data set [8] is reported as “about 72 h”.
